Data on 1 substance can be found in US10874621B2, “Cationic nanoparticles for co-delivery of nucleic acids and therapeutic agents” (The Brigham and Women's Hospital, Inc., priority 2013, dated 2020).

This data set is described as follows: Solubility of compound 1 in organic solvents. It counts as physicochemical. The following applies: organic solvents like DMSO and dichloromethane (DCM).

Consider “cis,cis,trans-[Pt(NH3)2Cl2(OOC(CH2)8CH3)2] [Compound 1]”, for which the “solubility in organic solvents” value is “sufficiently soluble”.
